Test results reported in PMC5755735, “Discovery of indolylpiperazinylpyrimidines with dual-target profiles at adenosine A2A and dopamine D2 receptors for Parkinson's disease treatment” (PLoS ONE, 2018).
Where a name gives a salt, the structure may show the parent alone.

Legend:
D2 receptor = details: competition binding experiments with [3H]spiperone; cited from earlier work
[1] = target: human A2A receptors expressed in CHO cells (Homo sapiens, UniProt P29274); assay: competition binding at human A2A adenosine receptors ([3H]NECA displacement); details: for Ki: displacement of [3H]NECA, CHO cells, 95% confidence limits, n = 3–6, read-out: Ki hA2A; for hA1/hA2A / hA3/hA2A: selectivity ratio of Ki values
Method: (§1) A two-step procedure was adopted to prepare membrane for radioligand binding from cells stably transfected with human adenosine receptor subtypes (hA1, hA2A and hA3 expressed on CHO cells). Firstly, cell fragments and nuclei were removed by using low-speed centrifugation (1,000 g for 10 min). After that, crude membrane fraction from supernatant was then sedimented at 100,000 g for 30 min. The membrane pellet was subsequently re-suspended in the specific binding buffer, frozen in liquid nitrogen and stored at -80°C. For measurement of adenylyl cyclase activity in the hA2B receptors, one-step centrifugation procedure was used; the homogenate was sedimented for 30 min at 54,000 g. The so-obtained crude membrane pellet was re-suspended in 50 mM Tris/HCl, pH 7.4 and used for the adenylyl cyclase assay immediately.
(§2) Non-specific binding was determined using theophylline 1 mM. […] Non-specific binding was determined using N^6-R-phenylisopropyl adenosine (R-PIA) 100 μM. ^41 The binding of [^3H]HEMADO to CHO cells transfected with hA3 adenosine receptors was carried out as described earlier. […] Non-specific binding was determined using R-PIA 100 μM.
(§3) The assay mixture was then filtered through the built-in filter at the bottom of the 96-well microplate filtration system (Millipore Multiscreen MAFC) and washed three times with 200 μL of cold buffer. After addition of 20 μL of scintillator to the dried filter plates, the filter bound radioactivity was counted on a Wallac Micro-Beta counter. All Ki values were calculated by non-linear curve fitting with the program SCTFIT [45].

[2] = target: T1, human A2B receptors expressed in CHO cells (Homo sapiens, UniProt P29275); assay: inhibition of NECA-stimulated adenylyl cyclase activity at hA2B
T1 sequence (P29275 1-332): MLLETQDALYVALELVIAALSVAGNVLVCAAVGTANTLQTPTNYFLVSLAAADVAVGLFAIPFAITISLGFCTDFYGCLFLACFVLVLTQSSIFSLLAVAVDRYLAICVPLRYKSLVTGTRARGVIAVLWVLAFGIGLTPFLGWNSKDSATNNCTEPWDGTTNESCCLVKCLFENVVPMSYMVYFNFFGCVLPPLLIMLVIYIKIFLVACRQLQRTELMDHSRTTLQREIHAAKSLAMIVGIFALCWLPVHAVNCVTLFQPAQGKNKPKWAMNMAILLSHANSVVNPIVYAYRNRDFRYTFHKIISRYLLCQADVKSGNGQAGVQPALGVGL

[3] = target: T2, human A1 receptors expressed in CHO cells (Homo sapiens, UniProt P30542); assay: competition binding at human A1 adenosine receptors ([3H]CCPA displacement); details: displacement of [3H]CCPA, 95% confidence limits, n = 3–6, read-out: Ki hA1
T2 sequence (P30542 1-326): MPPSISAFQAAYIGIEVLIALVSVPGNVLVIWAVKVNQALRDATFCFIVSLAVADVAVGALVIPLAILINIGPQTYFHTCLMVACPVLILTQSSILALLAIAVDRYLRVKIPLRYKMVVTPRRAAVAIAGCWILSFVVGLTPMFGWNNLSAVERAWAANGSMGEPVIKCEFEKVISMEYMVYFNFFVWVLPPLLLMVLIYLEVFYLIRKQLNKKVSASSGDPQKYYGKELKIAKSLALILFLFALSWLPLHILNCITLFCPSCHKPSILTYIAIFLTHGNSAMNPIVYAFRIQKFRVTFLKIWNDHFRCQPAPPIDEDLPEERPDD
Method: as §1, §2, §3

[4] = target: T3, human A3 receptors expressed in CHO cells (Homo sapiens, UniProt P0DMS8); assay: competition binding at human A3 adenosine receptors ([3H]HEMADO displacement); details: displacement of [3H]HEMADO, 95% confidence limits, n = 3–6, read-out: Ki hA3
T3 sequence (P0DMS8 1-318): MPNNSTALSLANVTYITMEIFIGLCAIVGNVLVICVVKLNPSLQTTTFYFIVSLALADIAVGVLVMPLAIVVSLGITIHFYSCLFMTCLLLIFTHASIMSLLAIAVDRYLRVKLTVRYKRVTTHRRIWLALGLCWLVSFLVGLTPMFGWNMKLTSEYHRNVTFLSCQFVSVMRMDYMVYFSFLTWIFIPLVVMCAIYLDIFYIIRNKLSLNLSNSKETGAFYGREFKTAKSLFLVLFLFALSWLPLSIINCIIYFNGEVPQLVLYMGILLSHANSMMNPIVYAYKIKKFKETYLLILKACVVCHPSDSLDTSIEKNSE
Method: as §1, §2, §3

hA2A = details: read-out: Ki hA2A; cited from earlier work
[5] = target: T3, human A3 receptors expressed in CHO cells; parameters: method as in PMID 17126322; details: read-out: KD of radioligand at hA3; cited from earlier work

Chain of human A2A receptors expressed in CHO cells (P29274 whole entry, the tested form may be a part): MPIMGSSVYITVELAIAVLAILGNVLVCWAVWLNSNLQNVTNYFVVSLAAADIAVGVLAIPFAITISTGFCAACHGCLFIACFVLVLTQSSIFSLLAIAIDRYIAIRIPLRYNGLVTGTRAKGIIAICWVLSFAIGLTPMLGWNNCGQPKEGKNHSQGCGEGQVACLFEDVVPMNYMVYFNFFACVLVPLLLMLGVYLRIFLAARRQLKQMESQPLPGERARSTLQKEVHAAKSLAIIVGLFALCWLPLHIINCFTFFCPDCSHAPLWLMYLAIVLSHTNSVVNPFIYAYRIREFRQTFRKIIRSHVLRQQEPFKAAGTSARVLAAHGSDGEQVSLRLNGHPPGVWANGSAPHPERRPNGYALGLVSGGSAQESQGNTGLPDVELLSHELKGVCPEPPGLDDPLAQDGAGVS

Structure (SMILES)	Ki [1]	Ki [2]	Ki [3]	Ki [4]	hA1/hA2A [1]	hA3/hA2A [1]	fold decrease in hA2A affinity ([1]; versus compound 6)	fold improvement in hA2A affinity ([1]; versus compound 5)	Ki (D2 receptor)	Ki (hA2A)	Kd [5]
CCCN(CCc1ccccc1)C1CCc2c(O)cccc2C1 (racemic) [(±)-PPHT.HCl, (±)-2-(N-phenethyl-N-propyl)amino-5-hydroxytetralin hydrochloride]									13.3 nM		
Cc1cc(C)nc(N2CCN(C(=O)CCc3c[nH]c4ccccc34)CC2)n1 [Compound 7, 1‐[4‐(4,6‐Dimethylpyrimidin‐2‐yl)piperazin‐1‐yl]‐3‐(1H‐indol‐3-yl)propan‐1‐one]	> 100 µM	> 20 µM									
Cc1cc(C)nc(N2CCN(C(=O)CCCc3c[nH]c4ccccc34)CC2)n1 [Compound 8, 1‐[4‐(4,6‐Dimethylpyrimidin‐2‐yl)piperazin‐1‐yl]‐4‐(1H‐indol‐3‐yl)butan‐1‐one]	> 100 µM	> 20 µM									
Cc1cc(C)nc(N2CCN(Cc3c[nH]c4ccccc34)CC2)n1 [Compound 9, 3‐{[4‐(4,6‐Dimethylpyrimidin‐2‐yl)piperazin‐1‐yl]methyl}‐1H‐indole]	> 30 µM	> 20 µM	> 100 µM	> 30 µM							
Cc1cc(C)nc(N2CCN(CCc3c(C)[nH]c4ccccc34)CC2)n1 [Compound 10, 3‐{2‐[4‐(4,6‐Dimethylpyrimidin‐2‐yl)piperazin‐1‐yl]ethyl}‐2‐methyl‐1H‐indole]	34.4 µM	> 20 µM	> 100 µM	39.8 µM	>3	1.16					
Cc1cc(C)nc(N2CCN(CCCc3c[nH]c4ccccc34)CC2)n1 [Compound 11, 3‐{3‐[4‐(4,6‐Dimethylpyrimidin‐2‐yl)piperazin‐1‐yl]propyl}‐1H‐indole]	> 100 µM	> 20 µM									
Cc1cc(C)nc(N2CCN(CCCCc3c[nH]c4ccccc34)CC2)n1 [Compound 12, 3‐{4‐[4‐(4,6‐Dimethylpyrimidin‐2‐yl)piperazin‐1‐yl]butyl}‐1H‐indole]	> 100 µM	> 20 µM									
COc1cccc2[nH]cc(C(=O)N3CCN(c4nc(C)cc(C)n4)CC3)c12 [Compound 13, 3‐[4‐(4,6‐Dimethylpyrimidin‐2‐yl)piperazine‐1‐carbonyl]‐4‐methoxy‐1H‐indole]	18.8 µM	> 20 µM	> 100 µM	> 30 µM	>5	>2					
COc1ccc2[nH]cc(C(=O)N3CCN(c4nc(C)cc(C)n4)CC3)c2c1 [Compound 14, 3‐[4‐(4,6‐Dimethylpyrimidin‐2‐yl)piperazine‐1‐carbonyl]‐5‐methoxy‐1H‐indole]	12.7 µM	> 20 µM	> 100 µM	> 30 µM	>8	>2					
CCn1c(=O)c2c(nc(/C=C/c3ccc(OC)c(OC)c3)n2C)n(CC)c1=O [KW-6002]										12 nM	
CCCCC#Cc1nc(NC)c2ncn([C@@H]3O[C@H](CO)[C@@H](O)[C@H]3O)c2n1 [[^3H]HEMADO, [^3H]-2-hexyn-1-yl-N^6-methyladenosine]											1.1 nM

Continued, in another order:

Ki [1]	Ki [2]	Ki [3]	Ki [4]	hA1/hA2A [1]	hA3/hA2A [1]	fold decrease in hA2A affinity ([1]; versus compound 6)	fold improvement in hA2A affinity ([1]; versus compound 5)	Structure (SMILES)	Ki (D2 receptor)	Ki (hA2A)	Kd [5]
18.2 µM	> 20 µM	> 100 µM	> 30 µM	>6	>2			Cc1cc(C)nc(N2CCN(C(=O)Cc3c(C)[nH]c4ccc(F)cc34)CC2)n1 [Compound 15, 1‐[4‐(4,6‐Dimethylpyrimidin‐2‐yl)piperazin‐1‐yl]‐2‐(5‐fluoro‐2‐methyl‐1H‐indol‐3‐yl)ethan‐1‐one]			
15.5 µM	> 20 µM	> 100 µM	19.5 µM	>7	1.26			Cc1cc(C)nc(N2CCN(C(=O)c3c[nH]c4ccc(Cl)cc34)CC2)n1 [Compound 16, 5‐Chloro‐3‐[4‐(4,6‐dimethylpyrimidin‐2‐yl)piperazine‐1‐carbonyl]‐1H‐indole]			
> 100 µM	> 20 µM	> 100 µM	> 100 µM					Cc1cc(C)nc(N2CCN(C(=O)Cc3c(C)[nH]c4c(F)cc(Br)cc34)CC2)n1 [Compound 17, 2‐(5‐Bromo‐7‐fluoro‐2‐methyl‐1H‐indol‐3‐yl)‐1‐[4‐(4,6-dimethylpyrimidin‐2‐yl)piperazin‐1‐yl]ethan‐1‐one]			
27.6 µM	> 20 µM	> 100 µM	> 30 µM	>4	>1	3.2 fold		Cc1cc(C)nc(N2CCN(C(=O)Cc3c[nH]c4ccccc34)CC2)n1 [Compound 18, 1‐[4‐(4,6‐Dimethylpyrimidin‐2‐yl)piperazin‐1‐yl]‐2‐(1H‐indol‐3‐yl)ethan‐1‐one]			
26.9 µM	> 20 µM	> 100 µM	> 30 µM	>4	>1			Cc1cc(C)nc(N2CCN(C(=O)Cc3c[nH]c4cc(F)ccc34)CC2)n1 [Compound 19, 1‐[4‐(4,6‐Dimethylpyrimidin‐2‐yl)piperazin‐1‐yl]‐2‐(6‐fluoro‐1H‐indol‐3‐yl)ethan‐1‐one]			
3.63 µM	> 20 µM	> 100 µM	> 30 µM	>28	>8		3 fold	COc1cccc2c(C(=O)N3CCN(c4nc(C)cc(C)n4)CC3)c[nH]c12 [Compound 20, 3‐[4‐(4,6‐Dimethylpyrimidin‐2‐yl)piperazine‐1‐carbonyl]‐7‐methoxy‐1H‐indole]			
> 100 µM	> 20 µM	> 100 µM	> 100 µM					Cc1cc(C)nc(N2CCN(C(=O)c3cc4ccccc4[nH]3)CC2)n1 [Compound 21, 2‐[4‐(4,6‐Dimethylpyrimidin‐2‐yl)piperazine‐1‐carbonyl]‐1H‐indole]			
> 100 µM	> 20 µM	> 100 µM	> 100 µM					Cc1cc(C)nc(N2CCN(C(=O)c3cc4cc(F)ccc4[nH]3)CC2)n1 [Compound 22, 2‐[4‐(4,6‐Dimethylpyrimidin‐2‐yl)piperazine‐1‐carbonyl]‐5‐fluoro‐1H‐indole]			
> 100 µM	> 20 µM	> 100 µM	> 100 µM					Cc1ccc2[nH]c(C(=O)N3CCN(c4nc(C)cc(C)n4)CC3)cc2c1 [Compound 23, 2‐[4‐(4,6‐Dimethylpyrimidin‐2‐yl)piperazine‐1‐carbonyl]‐5‐methyl‐1H‐indole]			
> 30 µM	> 20 µM	> 30 µM	> 30 µM					COc1ccc2[nH]c(C(=O)N3CCN(c4nc(C)cc(C)n4)CC3)cc2c1 [Compound 24, 2‐[4‐(4,6‐Dimethylpyrimidin‐2‐yl)piperazine‐1‐carbonyl]‐5‐methoxy‐1H‐indole]			
29.7 µM	> 20 µM	4.82 µM	> 30 µM	0.16	>1			Cc1cc(C)nc(N2CCN(C(=O)c3cc4cccc([N+](=O)[O-])c4[nH]3)CC2)n1 [Compound 25, {2‐[4‐(4,6‐Dimethylpyrimidin‐2‐yl)piperazine‐1‐carbonyl]‐1H‐indol‐7‐yl}azinic acid]			
